Assay results taken from US11166460B2, “α-amino acrylate microbicide, and preparation method therefor and uses thereof” (priority 2017, dated 2021).
Values after ≈ are worked out from the molar mass of the structure shown. Read-outs that look alike come from different tables or passages of the source.

Tests used:
wheat Gibberella zeae = test: microbe, parasite or virus in culture; type: cell-based; settings: Fusarium graminearum
[1] = tested on: tobacco mosaic virus (TMV); test: Anti-TMV inactivation activity (inactivation mode), compound mixed with TMV before inoculation of tobacco leaves; type: in vivo; settings: Tobacco mosaic virus, read-out: Anti-TMV activity, Inactivation effect (inhibition)
Alternaria solani = test: Fungicidal activity, fungi growth rate method, AS; type: cell-based; settings: Alternaria solani, 50 μg/mL
[2] = tested on: tobacco mosaic virus (TMV); test: Anti-TMV curative activity (treatment mode), live friction inoculation on tobacco seedlings; type: in vivo; settings: Tobacco mosaic virus, read-out: Anti-TMV activity, Curative effect (inhibition), 100 μg/mL, tobacco seedlings, checked on seventh day
[3] = tested on: Phytophthora infestans (Mont) de Bary; test: microbe, parasite or virus in culture; type: cell-based; settings: Phytophthora infestans
Rhizoctonia cerealis = test: Fungicidal activity, fungi growth rate method, RC; type: cell-based; settings: Ceratobasidium cereale, 50 μg/mL
[4] = tested on: tobacco mosaic virus (TMV); test: Anti-TMV protective activity (protection mode), live friction inoculation on tobacco seedlings; type: in vivo; settings: Tobacco mosaic virus, read-out: Anti-TMV activity, Protection effect (inhibition)
Physalospora piricola = test: Fungicidal activity, fungi growth rate method, PP; type: cell-based; settings: 50 μg/mL
Sclerotinia sclerotiorum = test: microbe, parasite or virus in culture; type: cell-based; settings: Sclerotinia sclerotiorum; for EC90: read-out: EC90 against S. sclerotiorum in vitro; for inhibition at 50 µg/mL: 50 μg/mL
Botrytis cinerea = test: Fungicidal activity, fungi growth rate method, BC; type: cell-based; settings: Botrytis cinerea, 50 μg/mL
Cercospora arachidicola = test: Fungicidal activity, fungi growth rate method, CA; type: cell-based; settings: Mycosphaerella arachidis, 50 μg/mL
Pellicularia sasakii = test: Fungicidal activity, fungi growth rate method, PS; type: cell-based; settings: 50 μg/mL
[5] = tested on: tobacco mosaic virus (TMV); test: Anti-TMV inducing activity (induction mode), tobacco seedlings; type: in vivo; settings: Tobacco mosaic virus, read-out: Anti-TMV activity, Induction effect (inhibition), 100 μg/mL, tobacco seedlings
[6] = read-out: Fungicidal activity, inhibition, GZ
[7] = read-out: Fungicidal activity, inhibition, AS
[8] = read-out: Fungicidal activity, inhibition, PI
[9] = read-out: Fungicidal activity, inhibition, RC
[10] = read-out: Fungicidal activity, inhibition, PP
[11] = read-out: Fungicidal activity (inhibition) against SS: Sclerotinia sclerotiorum
[12] = read-out: Fungicidal activity, inhibition, SS
[13] = read-out: Fungicidal activity, inhibition, BC
[14] = read-out: Fungicidal activity, inhibition, CA
[15] = read-out: Fungicidal activity, inhibition, PS
[16] = read-out: Fungicidal activity (inhibition) against GZ: wheat Gibberella zeae
[17] = read-out: Fungicidal activity (inhibition) against AS: Alternaria solani
[18] = read-out: Fungicidal activity (inhibition) against PI: Phytophthora infestans (Mont) de Bary
[19] = read-out: Fungicidal activity (inhibition) against RC: Rhizoctonia cerealis
[20] = read-out: Fungicidal activity (inhibition) against PP: Physalospora piricola
[21] = read-out: Fungicidal activity (inhibition) against CA: Cercospora arachidicola
[22] = read-out: Fungicidal activity (inhibition) against PS: Pellicularia sasakii

O=C(N/C(=C\c1ccccc1)C(=O)N1CCC(O)(c2ccc(Br)cc2)CC1)c1ccccc1[N+](=O)[O-] [Compound 12, (Z)-N-[1-[[4-(4-bromophenyl)-4-hydroxy-1-piperidinyl]carbonyl]-2-phenylethenyl]-2-nitrobenzamide]
melting point: 122 to 124 °C
inhibition at 50 µg/mL (wheat Gibberella zeae; [6]): 39%
inhibition at 100 µg/mL [1]: 28%
inhibition at 50 µg/mL (Alternaria solani; [7]): 12%
inhibition at 100 µg/mL [2]: 56%
inhibition at 50 µg/mL [3, 8]: 10%
inhibition at 50 µg/mL (Rhizoctonia cerealis; [9]): 14%
inhibition at 100 µg/mL [4]: 23%
inhibition at 50 µg/mL (Physalospora piricola; [10]): 17%
EC90 (Sclerotinia sclerotiorum): 192 µg/mL (≈ 348 µM)
inhibition at 50 µg/mL (Sclerotinia sclerotiorum; [11]): 100%
inhibition at 50 µg/mL (Sclerotinia sclerotiorum; [12]): 100%
inhibition at 50 µg/mL (Botrytis cinerea; [13]): 8%
inhibition at 50 µg/mL (Cercospora arachidicola; [14]): 16%
inhibition at 50 µg/mL (Pellicularia sasakii; [15]): 17%
inhibition at 100 µg/mL [5]: 0%

O=C(N/C(=C\c1ccccc1)C(=O)N1CCC(O)(c2ccc(Br)cc2)CC1)C1CCCCC1 [Compound 2, (Z)-N-[1-[[4-(4-bromophenyl)-4-hydroxy-1-piperidinyl]carbonyl]-2-phenylethenyl]cyclohexanecarboxamide]
melting point: 124 to 126 °C
inhibition at 50 µg/mL (wheat Gibberella zeae; [6]): 22%
inhibition at 100 µg/mL [1]: 81%
inhibition at 50 µg/mL (Alternaria solani; [7]): 15%
inhibition at 100 µg/mL [2]: 50%
inhibition at 50 µg/mL [3, 8]: 23%
inhibition at 50 µg/mL (Rhizoctonia cerealis; [9]): 16%
inhibition at 100 µg/mL [4]: 43%
inhibition at 50 µg/mL (Physalospora piricola; [10]): 7%
EC90 (Sclerotinia sclerotiorum): 565 µg/mL (≈ 1110 µM)
inhibition at 50 µg/mL (Sclerotinia sclerotiorum; [11]): 100%
inhibition at 50 µg/mL (Sclerotinia sclerotiorum; [12]): 100%
inhibition at 50 µg/mL (Botrytis cinerea; [13]): 15%
inhibition at 50 µg/mL (Cercospora arachidicola; [14]): 12%
inhibition at 50 µg/mL (Pellicularia sasakii; [15]): 19%
inhibition at 100 µg/mL [5]: 77%

O=C(N/C(=C\c1ccccc1)C(=O)N1CCC(O)CC1)c1ccccc1 [Compound 45, (Z)-N-[1-[(4-hydroxy-1-piperidinyl)carbonyl]-2-phenylethenyl]benzamide]
melting point: 115 to 117 °C
inhibition at 50 µg/mL (wheat Gibberella zeae; [16]): < 45%
inhibition at 50 µg/mL (wheat Gibberella zeae; [6]): 43%
inhibition at 100 µg/mL [1]: 22%
inhibition at 50 µg/mL (Alternaria solani; [17]): < 30%
inhibition at 50 µg/mL (Alternaria solani; [7]): 25%
inhibition at 100 µg/mL [2]: 30%
inhibition at 50 µg/mL [3, 18]: < 25%
inhibition at 50 µg/mL [3, 8]: 24%
inhibition at 50 µg/mL (Rhizoctonia cerealis; [19]): < 20%
inhibition at 50 µg/mL (Rhizoctonia cerealis; [9]): 13%
inhibition at 100 µg/mL [4]: 54%
inhibition at 50 µg/mL (Physalospora piricola; [20]): < 20%
inhibition at 50 µg/mL (Physalospora piricola; [10]): 6%
inhibition at 50 µg/mL (Sclerotinia sclerotiorum; [11]): 38%
inhibition at 50 µg/mL (Sclerotinia sclerotiorum; [12]): 38%
inhibition at 50 µg/mL (Botrytis cinerea; [13]): 12%
inhibition at 50 µg/mL (Cercospora arachidicola; [21]): < 25%
inhibition at 50 µg/mL (Cercospora arachidicola; [14]): 6%
inhibition at 50 µg/mL (Pellicularia sasakii; [22]): < 30%
inhibition at 50 µg/mL (Pellicularia sasakii; [15]): 3%
inhibition at 100 µg/mL [5]: 52%

O=C(N/C(=C\c1ccccc1)C(=O)N1CCC(O)(c2ccc(Br)cc2)CC1)c1ccc([N+](=O)[O-])cc1 [Compound 10, (Z)-N-[1-[[4-(4-bromophenyl)-4-hydroxy-1-piperidinyl]carbonyl]-2-phenylethenyl]-4-nitrobenzamide]
melting point: 130 to 132 °C
inhibition at 50 µg/mL (wheat Gibberella zeae; [6]): 17%
inhibition at 100 µg/mL [1]: 62%
inhibition at 50 µg/mL (Alternaria solani; [7]): 8%
inhibition at 100 µg/mL [2]: 39%
inhibition at 50 µg/mL [3, 8]: 18%
inhibition at 50 µg/mL (Rhizoctonia cerealis; [9]): 16%
inhibition at 100 µg/mL [4]: 13%
inhibition at 50 µg/mL (Physalospora piricola; [10]): 7%
inhibition at 50 µg/mL (Sclerotinia sclerotiorum; [11]): 80 to 95%
inhibition at 50 µg/mL (Sclerotinia sclerotiorum; [12]): 86%
inhibition at 50 µg/mL (Botrytis cinerea; [13]): 11%
inhibition at 50 µg/mL (Cercospora arachidicola; [14]): 9%
inhibition at 50 µg/mL (Pellicularia sasakii; [15]): 17%
inhibition at 100 µg/mL [5]: 48%

CNC(=O)/C(=C/c1ccccc1)NC(=O)c1ccccc1 [Compound 32, (Z)-N-[1-[(methylamino)carbonyl]-2-phenylethenyl]benzamide]
melting point: 185 to 187 °C
inhibition at 50 µg/mL (wheat Gibberella zeae; [16]): < 45%
inhibition at 50 µg/mL (wheat Gibberella zeae; [6]): 6%
inhibition at 100 µg/mL [1]: 25%
inhibition at 50 µg/mL (Alternaria solani; [17]): < 30%
inhibition at 50 µg/mL (Alternaria solani; [7]): 5%
inhibition at 100 µg/mL [2]: 0%
inhibition at 50 µg/mL [3, 18]: < 25%
inhibition at 50 µg/mL [3, 8]: 16%
inhibition at 50 µg/mL (Rhizoctonia cerealis; [19]): < 20%
inhibition at 50 µg/mL (Rhizoctonia cerealis; [9]): 4%
inhibition at 100 µg/mL [4]: 58%
inhibition at 50 µg/mL (Physalospora piricola; [20]): < 20%
inhibition at 50 µg/mL (Physalospora piricola; [10]): 12%
inhibition at 50 µg/mL (Sclerotinia sclerotiorum; [11]): 80%
inhibition at 50 µg/mL (Sclerotinia sclerotiorum; [12]): 80%
inhibition at 50 µg/mL (Botrytis cinerea; read-out: Fungicidal activity (inhibition) against BC: Botrytis cinerea): ≤ 20%
inhibition at 50 µg/mL (Botrytis cinerea; [13]): 11%
inhibition at 50 µg/mL (Cercospora arachidicola; [21]): < 25%
inhibition at 50 µg/mL (Cercospora arachidicola; [14]): 16%
inhibition at 50 µg/mL (Pellicularia sasakii; [22]): < 30%
inhibition at 50 µg/mL (Pellicularia sasakii; [15]): 13%
inhibition at 100 µg/mL [5]: 10%

CC(C)(C)OC(=O)N1CCC(c2nc(/C=C(\NC(=O)c3ccccc3)C(=O)N3CCC(O)(c4ccc(Br)cc4)CC3)cs2)CC1 [Compound 29, (Z)-N-[1-[[4-(4-bromophenyl)-4-hydroxy-1-piperidinyl]carbonyl]-2-[4-[2-[4-(1-Boc-piperidine)]thiazol]]ethenyl]benzamide]
melting point: 166 to 168 °C
inhibition at 50 µg/mL (wheat Gibberella zeae; [6]): 3%
inhibition at 100 µg/mL [1]: 0%
inhibition at 50 µg/mL (Alternaria solani; [7]): 6%
inhibition at 100 µg/mL [2]: 36%
inhibition at 50 µg/mL [3, 8]: 14%
inhibition at 50 µg/mL (Rhizoctonia cerealis; [9]): 10%
inhibition at 100 µg/mL [4]: 0%
inhibition at 50 µg/mL (Physalospora piricola; [10]): 0%
inhibition at 50 µg/mL (Sclerotinia sclerotiorum; [12]): 67%
inhibition at 50 µg/mL (Botrytis cinerea; [13]): 7%
inhibition at 50 µg/mL (Cercospora arachidicola; [14]): 13%
inhibition at 50 µg/mL (Pellicularia sasakii; [15]): 11%
inhibition at 100 µg/mL [5]: 2%

O=C(NCc1cccc(Br)c1)/C(=C/c1ccccc1)NC(=O)c1ccccc1 [Compound 51, N-[(1Z)-2-phenyl-1-[[(3-bromophenylmethyl)amino]carbonyl]ethenyl]benzamide]
melting point: 180 to 182 °C
inhibition at 50 µg/mL (wheat Gibberella zeae; [6]): 43%
inhibition at 100 µg/mL [1]: 69%
inhibition at 50 µg/mL (Alternaria solani; [7]): 25%
inhibition at 100 µg/mL [2]: 12%
inhibition at 50 µg/mL [3, 8]: 21%
inhibition at 50 µg/mL (Rhizoctonia cerealis; [9]): 28%
inhibition at 100 µg/mL [4]: 11%
inhibition at 50 µg/mL (Physalospora piricola; [10]): 18%
inhibition at 50 µg/mL (Sclerotinia sclerotiorum; [12]): 50%
inhibition at 50 µg/mL (Botrytis cinerea; [13]): 24%
inhibition at 50 µg/mL (Cercospora arachidicola; [14]): 15%
inhibition at 50 µg/mL (Pellicularia sasakii; [15]): 14%
inhibition at 100 µg/mL [5]: 14%

Cc1nnsc1/C=C1\N=C(c2ccccc2)OC1=O [Compound 77, (4Z)-4-[5-(4-methyl-1,2,3-thiadiazol)ethenyl]-2-phenyl-1,3-oxazol-5-(4H)-one]
melting point: 196 to 198 °C
inhibition at 50 µg/mL (wheat Gibberella zeae; [6]): 43%
inhibition at 100 µg/mL [1]: 0%
inhibition at 50 µg/mL (Alternaria solani; [7]): 11%
inhibition at 100 µg/mL [2]: 0%
inhibition at 50 µg/mL [3, 8]: 16%
inhibition at 50 µg/mL (Rhizoctonia cerealis; [9]): 23%
inhibition at 100 µg/mL [4]: 40%
inhibition at 50 µg/mL (Physalospora piricola; [10]): 6%
inhibition at 50 µg/mL (Sclerotinia sclerotiorum; [11]): 47%
inhibition at 50 µg/mL (Sclerotinia sclerotiorum; [12]): 47%
inhibition at 50 µg/mL (Botrytis cinerea; [13]): 12%
inhibition at 50 µg/mL (Cercospora arachidicola; [14]): 24%
inhibition at 50 µg/mL (Pellicularia sasakii; [15]): 14%
inhibition at 100 µg/mL [5]: 44%
